In US20170003277A1 (priority 2015, published 2017):

Test system: THP-1 human monocyte cell line
Assay: Microarray gene expression in THP-1 cells, Polimunol vs Copaxone, two repeats, 6 hours (Example 11)
Type: cell-based
[1] = In two prior THP-1 studies (intersection of both prior datasets)
[2] = Intersection of prior THP-1 studies and current study

glatiramer acetate [Copaxone®]
Probesets significantly modulated by Copaxone relative to mannitol (6 hours): 12,115 | IL1ORA expression relative to mannitol (FDR p<1.7e-21): significantly upregulated | Probesets downregulated by Copaxone versus mannitol with FC ≦ −1.5, number (In current study): 28 | Probesets upregulated by Copaxone versus mannitol with FC ≧ 1.5, number (In current study): 156 | Probesets downregulated by Copaxone versus mannitol with FC ≦ −1.5, number [1]: 15 | Probesets upregulated by Copaxone versus mannitol with FC ≧ 1.5, number [1]: 149 | Probesets downregulated by Copaxone versus mannitol with FC ≦ −1.5, number [2]: 9 | Probesets upregulated by Copaxone versus mannitol with FC ≧ 1.5, number [2]: 94 | IL1RN expression relative to mannitol (all 3 present probesets: FDR p values<6.2e-21, 2.6e-17, 8.0e-14): strongly upregulated | IL10 expression relative to mannitol (single probeset not present): not upregulated significantly | Significant probesets in pairwise comparisons between three Copaxone lots (two comparisons / third comparison (adjusted p value 0.044)): zero and single | Probesets significantly downregulated by Copaxone (vs mannitol, 6 hours): 6819 | Probesets significantly upregulated by Copaxone (vs mannitol, 6 hours): 5296
